Measurements reported in US10314784B2, “Compositions of glycopyrronium salt for inhalation” (Novartis AG, priority 2006, dated 2019).

Legend:
[1] = Particle size of micronised drug substance after jet milling; assay type: physicochemical; settings: after micronisation in jet mill
Description: 37 g of magnesium […] are mixed with 1 kg of crystalline glycopyrronium bromide in a Turbula® blender for 5 hours. The resulting mixture is micronised using a Hosokawa Alpine® 100 AFG fluid bed opposed jet mill with the following parameters: classifier speed, 13000 rpm; milling gas pressure, 3.5 bar. The mill is equipped with 3 nozzles of 1.9 mm diameter.
The resulting mixture has a median particle size of about 3 micron (x90=7 micron, x50=3 micron, x10=1 micron). The magnesium stearate is well distributed over the drug substance surface.
(§1) Drug substance 1:50 g of magnesium stearate are mixed with 1 kg of crystalline glycopyrronium bromide in a Turbula® blender for 5 hours. The resulting mixture is micronised using a Hosokawa Alpine® 100 AFG fluid bed opposed jet mill (equipped with 3 nozzles of 1.9 mm diameter) with the following parameters: classifier speed, 13000 rpm; milling gas pressure, 3.5 bar, to give particles that have an average particle size of less than 5 microns.
as §1, with “2:” for “1:50 g of magnesium stearate are mixed with”, “glycopyrroninum” for “glycopyrronium”, “bromide” for “bromide in a Turbula® blender for 5 hours. The resulting mixture”

[2] = single administration of a metered dose, aerosol formulation, asthma; cited from earlier work

C[N+]1(C)CCC(OC(=O)C(O)(c2ccccc2)C2CCCC2)C1 (centres unmarked) [Drug substance 2, glycopyrroninum bromide]
average particle size [1]: less than 5 microns

C[N+]1(C)CCC(OC(=O)C(O)(c2ccccc2)C2CCCC2)C1.[Br-] (centres unmarked) [glycopyrrolate, 3-[(cyclopentyl-hydroxyphenylacetyl)oxy]-1,1-dimethyl-pyrrolidinium bromide]
duration of bronchodilation [2]: up to 12 hours
